Reference: patent publication US8129417B2, “Substituted octahydrocyclopenta[C]pyrrol-4-amines as calcium channel blockers” (Abbott Laboratories, priority 2008, dated 2012)

The compounds below were run against human Cav2.2 (Homo sapiens, UniProt Q00975) (assay: Assessment of calcium channel activity using FLIPR (Ca2+ influx in IMR32 cells)). Settings: 60 minute pre-incubation with compound, 2 μM nifedipine, depolarized with 80 mM KCl.
Assay type: cell-based
Outline: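 IMR32 neuroblastoma cells seeded at 1-1.2×10^5 cells/well and grown 48 h at 37 °C before FLIPR Ca2+ influx read. Percent inhibition at each concentration vs no-inhibitor activity; IC50 by non-linear sigmoidal dose-response fit.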

human Cav2.2, sequence (Q00975 whole entry): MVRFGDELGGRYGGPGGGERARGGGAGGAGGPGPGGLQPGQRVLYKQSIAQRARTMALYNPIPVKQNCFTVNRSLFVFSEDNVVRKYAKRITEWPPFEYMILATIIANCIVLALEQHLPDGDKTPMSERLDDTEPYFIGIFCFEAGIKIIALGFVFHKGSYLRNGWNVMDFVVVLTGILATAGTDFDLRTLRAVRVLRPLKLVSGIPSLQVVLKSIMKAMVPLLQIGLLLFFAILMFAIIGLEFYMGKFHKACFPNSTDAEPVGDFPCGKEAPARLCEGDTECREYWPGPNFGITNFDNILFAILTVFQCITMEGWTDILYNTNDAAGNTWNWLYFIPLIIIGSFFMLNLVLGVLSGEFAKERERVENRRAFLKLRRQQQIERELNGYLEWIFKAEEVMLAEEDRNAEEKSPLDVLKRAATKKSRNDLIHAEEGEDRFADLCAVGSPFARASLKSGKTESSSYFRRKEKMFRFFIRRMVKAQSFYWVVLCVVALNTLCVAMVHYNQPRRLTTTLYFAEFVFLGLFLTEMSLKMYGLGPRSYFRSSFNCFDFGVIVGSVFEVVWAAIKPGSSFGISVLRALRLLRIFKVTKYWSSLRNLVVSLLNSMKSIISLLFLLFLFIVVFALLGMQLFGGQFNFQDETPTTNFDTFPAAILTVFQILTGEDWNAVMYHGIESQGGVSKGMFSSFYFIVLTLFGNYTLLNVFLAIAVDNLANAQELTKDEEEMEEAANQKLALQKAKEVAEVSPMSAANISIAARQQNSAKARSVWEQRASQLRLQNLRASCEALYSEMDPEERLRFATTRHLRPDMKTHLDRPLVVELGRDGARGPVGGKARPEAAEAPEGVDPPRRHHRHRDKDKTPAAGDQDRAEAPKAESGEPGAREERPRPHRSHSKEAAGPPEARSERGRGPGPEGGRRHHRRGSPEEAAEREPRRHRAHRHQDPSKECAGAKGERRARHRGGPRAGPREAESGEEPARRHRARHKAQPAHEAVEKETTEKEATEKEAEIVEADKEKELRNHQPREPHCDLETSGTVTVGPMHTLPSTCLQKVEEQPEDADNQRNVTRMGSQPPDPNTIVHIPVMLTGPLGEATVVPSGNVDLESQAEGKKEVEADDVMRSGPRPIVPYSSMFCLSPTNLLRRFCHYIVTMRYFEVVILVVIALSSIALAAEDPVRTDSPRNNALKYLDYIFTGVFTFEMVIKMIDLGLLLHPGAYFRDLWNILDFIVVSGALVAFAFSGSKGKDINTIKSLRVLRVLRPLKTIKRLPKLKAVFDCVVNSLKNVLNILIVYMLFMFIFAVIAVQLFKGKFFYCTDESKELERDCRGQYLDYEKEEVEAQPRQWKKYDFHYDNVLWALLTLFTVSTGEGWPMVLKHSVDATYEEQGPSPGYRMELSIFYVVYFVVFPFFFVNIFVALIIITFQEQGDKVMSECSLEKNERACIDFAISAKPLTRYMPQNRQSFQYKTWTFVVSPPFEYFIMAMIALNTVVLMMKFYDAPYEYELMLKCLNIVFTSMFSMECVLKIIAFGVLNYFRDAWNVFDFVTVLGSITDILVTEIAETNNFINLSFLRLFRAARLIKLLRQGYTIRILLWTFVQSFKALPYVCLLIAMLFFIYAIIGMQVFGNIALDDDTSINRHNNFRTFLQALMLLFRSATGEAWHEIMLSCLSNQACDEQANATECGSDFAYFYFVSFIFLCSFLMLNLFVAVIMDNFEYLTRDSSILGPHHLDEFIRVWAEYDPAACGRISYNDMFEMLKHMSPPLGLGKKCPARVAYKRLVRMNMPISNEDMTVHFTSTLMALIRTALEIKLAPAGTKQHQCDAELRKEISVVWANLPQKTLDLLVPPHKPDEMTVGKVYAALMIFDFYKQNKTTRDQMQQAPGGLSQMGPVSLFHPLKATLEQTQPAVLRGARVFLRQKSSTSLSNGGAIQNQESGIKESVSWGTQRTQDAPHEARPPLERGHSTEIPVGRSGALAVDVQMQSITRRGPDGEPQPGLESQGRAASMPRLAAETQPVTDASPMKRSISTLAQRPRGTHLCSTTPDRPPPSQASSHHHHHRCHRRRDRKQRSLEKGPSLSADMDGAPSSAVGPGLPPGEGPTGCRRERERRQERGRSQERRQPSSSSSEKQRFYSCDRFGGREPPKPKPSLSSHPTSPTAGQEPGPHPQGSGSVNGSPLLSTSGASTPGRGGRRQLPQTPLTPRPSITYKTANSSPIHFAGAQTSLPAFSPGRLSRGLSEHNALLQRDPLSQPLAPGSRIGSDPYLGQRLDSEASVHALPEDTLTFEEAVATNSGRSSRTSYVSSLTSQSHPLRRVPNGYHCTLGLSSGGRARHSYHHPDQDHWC
human Cav2.2, sequence (P54289 25-946 partner limits assumed): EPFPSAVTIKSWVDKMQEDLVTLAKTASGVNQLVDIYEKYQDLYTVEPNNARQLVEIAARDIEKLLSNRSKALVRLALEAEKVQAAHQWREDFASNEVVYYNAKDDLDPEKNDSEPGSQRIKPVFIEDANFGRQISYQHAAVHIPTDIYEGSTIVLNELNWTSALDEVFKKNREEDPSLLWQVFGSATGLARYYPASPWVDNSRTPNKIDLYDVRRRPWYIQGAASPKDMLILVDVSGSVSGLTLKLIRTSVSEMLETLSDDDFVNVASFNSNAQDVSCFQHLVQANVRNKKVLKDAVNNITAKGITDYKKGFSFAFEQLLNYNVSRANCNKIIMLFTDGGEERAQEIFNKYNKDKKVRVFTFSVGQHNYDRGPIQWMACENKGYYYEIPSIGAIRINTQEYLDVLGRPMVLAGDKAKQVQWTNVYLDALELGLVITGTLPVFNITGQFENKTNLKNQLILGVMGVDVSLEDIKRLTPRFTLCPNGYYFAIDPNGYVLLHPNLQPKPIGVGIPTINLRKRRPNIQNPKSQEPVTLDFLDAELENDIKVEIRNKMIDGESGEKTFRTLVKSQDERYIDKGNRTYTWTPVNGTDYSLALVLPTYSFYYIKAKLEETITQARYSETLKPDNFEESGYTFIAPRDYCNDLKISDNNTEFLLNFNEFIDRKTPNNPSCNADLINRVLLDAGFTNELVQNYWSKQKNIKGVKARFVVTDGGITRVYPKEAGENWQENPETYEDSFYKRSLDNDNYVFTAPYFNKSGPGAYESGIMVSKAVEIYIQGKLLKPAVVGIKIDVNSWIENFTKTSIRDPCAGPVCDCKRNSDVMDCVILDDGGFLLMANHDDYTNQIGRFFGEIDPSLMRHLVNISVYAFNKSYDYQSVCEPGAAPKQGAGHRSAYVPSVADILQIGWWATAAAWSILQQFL
human Cav2.2, sequence (P54289 947-1103 partner limits assumed): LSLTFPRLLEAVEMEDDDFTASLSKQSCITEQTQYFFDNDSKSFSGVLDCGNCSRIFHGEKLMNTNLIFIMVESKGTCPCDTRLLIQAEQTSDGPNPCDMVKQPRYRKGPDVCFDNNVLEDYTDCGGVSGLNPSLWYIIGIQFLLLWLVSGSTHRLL
human Cav2.2, sequence (P54284 whole entry partner): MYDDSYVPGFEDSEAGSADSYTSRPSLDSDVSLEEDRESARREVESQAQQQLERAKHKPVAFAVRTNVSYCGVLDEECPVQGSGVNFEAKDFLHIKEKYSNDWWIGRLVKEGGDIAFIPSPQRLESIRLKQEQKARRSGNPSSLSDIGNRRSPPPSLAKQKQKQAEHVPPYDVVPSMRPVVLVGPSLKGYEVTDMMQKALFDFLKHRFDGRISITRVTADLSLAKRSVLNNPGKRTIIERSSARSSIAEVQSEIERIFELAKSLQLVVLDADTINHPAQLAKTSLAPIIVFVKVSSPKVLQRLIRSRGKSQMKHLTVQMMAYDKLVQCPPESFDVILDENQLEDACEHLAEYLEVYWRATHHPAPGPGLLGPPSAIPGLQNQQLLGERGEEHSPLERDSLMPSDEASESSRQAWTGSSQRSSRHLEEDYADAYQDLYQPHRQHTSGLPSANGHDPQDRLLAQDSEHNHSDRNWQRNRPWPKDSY

Point of comparison: CN[C@@H](CC(C)(C)C)C(=O)N[C@@H]1CC[C@H]2CN(S(=O)(=O)c3cccc(C(F)(F)F)c3)C[C@H]21 [Example 416, N^2,4-dimethyl-N^1-((3aS,4R,6aR)-2-{[3-(trifluoromethyl)phenyl]sulfonyl}octahydrocyclopenta[c]pyrrol-4-yl)-L-leucinamide], IC50 1330 nM. Against it:
- CC[C@H](C)[C@H](NC)C(=O)N[C@H]1CC[C@@H]2CN(S(=O)(=O)c3cccc(C(F)(F)F)c3)C[C@@H]21 [Example 410, N^2-methyl-N^1-((3aR,4S,6aS)-2-{[3-(trifluoromethyl)phenyl]sulfonyl}octahydrocyclopenta[c]pyrrol-4-yl)-L-isoleucinamide] — within 1.5-fold, 1800 nM
- CC[C@H](C)[C@H](NC)C(=O)N[C@H]1CC[C@@H]2CN(S(=O)(=O)c3ccc(C(F)(F)F)cc3)C[C@@H]21 [Example 411, N^2-methyl-N^1-((3aR,4S,6aS)-2-{[4-(trifluoromethyl)phenyl]sulfonyl}octahydrocyclopenta[c]pyrrol-4-yl)-L-isoleucinamide] — 3.2-fold higher, 4220 nM
- CN[C@@H](CC(C)(C)C)C(=O)N[C@H]1CC[C@@H]2CN(S(=O)(=O)c3cccc(C(F)(F)F)c3)C[C@@H]21 [Example 414, N^2,4-dimethyl-N^1-((3aR,4S,6aS)-2-{[3-(trifluoromethyl)phenyl]sulfonyl}octahydrocyclopenta[c]pyrrol-4-yl)-L-leucinamide] — within 1.5-fold, 900 nM
- CN[C@@H](CC(C)(C)C)C(=O)N[C@@H]1CC[C@H]2CN(S(=O)(=O)c3ccc(C(F)(F)F)cc3)C[C@H]21 [Example 417, N^2,4-dimethyl-N^1-((3aS,4R,6aR)-2-{[4-(trifluoromethyl)phenyl]sulfonyl}octahydrocyclopenta[c]pyrrol-4-yl)-L-leucinamide] — within 1.5-fold, 1160 nM
- CCCC[C@H](NC)C(=O)N[C@H]1CC[C@@H]2CN(S(=O)(=O)c3ccc(C(F)(F)F)cc3)C[C@@H]21 [Example 418, N^2-methyl-N^1-((3aR,4S,6aS)-2-{[4-(trifluoromethyl)phenyl]sulfonyl}octahydrocyclopenta[c]pyrrol-4-yl)-L-norleucinamide] — 1.6-fold lower, 820 nM
- CC(C)(C)C[C@H](N)C(=O)N[C@H]1CC[C@@H]2CN(S(=O)(=O)c3ccc(C(F)(F)F)cc3)C[C@@H]21 [Example 419, 4-methyl-N^1-((3aR,4S,6aS)-2-{[4-(trifluoromethyl)phenyl]sulfonyl}octahydrocyclopenta[c]pyrrol-4-yl)-L-leucinamide] — 1.7-fold lower, 800 nM
- CCC[C@H](NC)C(=O)N[C@@H]1CC[C@@H]2CN(S(=O)(=O)c3ccc(C(F)(F)F)cc3)C[C@@H]21 [Example 420, N^2-methyl-N^1-((3aR,4R,6aS)-2-{[4-(trifluoromethyl)phenyl]sulfonyl}octahydrocyclopenta[c]pyrrol-4-yl)-L-norvalinamide] — 4.3-fold higher, 5700 nM
- CN[C@@H](CC(C)C)C(=O)N[C@@H]1CC[C@@H]2CN(S(=O)(=O)c3ccc(C(F)(F)F)cc3)C[C@@H]21 [Example 421, N^2-methyl-N^1-((3aR,4R,6aS)-2-{[4-(trifluoromethyl)phenyl]sulfonyl}octahydrocyclopenta[c]pyrrol-4-yl)-L-leucinamide] — 1.9-fold higher, 2560 nM
- CCC[C@H](N)C(=O)N[C@H]1CC[C@@H]2CN(S(=O)(=O)c3cccc(C(F)(F)F)c3)C[C@@H]21 [Example 424, N^1-((3aR,4S,6aS)-2-{[3-(trifluoromethyl)phenyl]sulfonyl}octahydrocyclopenta[c]pyrrol-4-yl)-L-norvalinamide] — 2.3-fold higher, 3110 nM
- CCC[C@H](N)C(=O)N[C@@H]1CC[C@H]2CN(S(=O)(=O)c3cccc(C(F)(F)F)c3)C[C@H]21 [Example 425, N^1-((3aS,4R,6aR)-2-{[3-(trifluoromethyl)phenyl]sulfonyl}octahydrocyclopenta[c]pyrrol-4-yl)-L-norvalinamide] — 2.4-fold higher, 3210 nM
- CN[C@@H](CC1CCCCC1)C(=O)N[C@H]1CC[C@@H]2CN(S(=O)(=O)c3ccc(C(F)(F)F)cc3)C[C@@H]21 [Example 427, 3-cyclohexyl-N^2-methyl-N^1-((3aR,4S,6aS)-2-{[4-(trifluoromethyl)phenyl]sulfonyl}octahydrocyclopenta[c]pyrrol-4-yl)-L-alaninamide] — 4.8-fold higher, 6450 nM
- CC(C)(C)C[C@H](N)C(=O)N[C@H]1CC[C@@H]2CN(S(=O)(=O)c3cc(C(F)(F)F)ccc3Cl)C[C@@H]21 [Example 428, N^1-((3aR,4S,6aS)-2-{[2-chloro-5-(trifluoromethyl)phenyl]sulfonyl}octahydrocyclopenta[c]pyrrol-4-yl)-4-methyl-L-leucinamide] — 1.7-fold higher, 2310 nM
- CC(C)(C)C[C@H](N)C(=O)N[C@H]1CC[C@@H]2CN(S(=O)(=O)c3ccc(C(F)(F)F)cc3Cl)C[C@@H]21 [Example 429, N^1-((3aR,4S,6aS)-2-{[2-chloro-4-(trifluoromethyl)phenyl]sulfonyl}octahydrocyclopenta[c]pyrrol-4-yl)-4-methyl-L-leucinamide] — within 1.5-fold, 960 nM
- CN[C@@H](CC(C)(C)C)C(=O)N[C@H]1CC[C@@H]2CN(S(=O)(=O)c3ccc(C(F)(F)F)cc3Cl)C[C@@H]21 [Example 431, N^1-((3aR,4S,6aS)-2-{[2-chloro-4-(trifluoromethyl)phenyl]sulfonyl}octahydrocyclopenta[c]pyrrol-4-yl)-N^2,4-dimethyl-L-leucinamide] — 2.3-fold lower, 580 nM
- CN[C@@H](CC(C)(C)C)C(=O)N(C1CC1)[C@H]1CC[C@@H]2CN(S(=O)(=O)c3ccc(C(F)(F)F)cc3)C[C@@H]21 [Example 433, N^1-cyclopropyl-N^2,4-dimethyl-N^1-((3aR,4S,6aS)-2-{[4-(trifluoromethyl)phenyl]sulfonyl}octahydrocyclopenta[c]pyrrol-4-yl)-L-leucinamide] — within 1.5-fold, 1260 nM
- CCN(C(=O)[C@H](CC(C)(C)C)NC)[C@H]1CC[C@@H]2CN(S(=O)(=O)c3ccc(C(F)(F)F)cc3)C[C@@H]21 [Example 434, N^1-ethyl-N^2,4-dimethyl-N^1-((3aR,4S,6aS)-2-{[4-(trifluoromethyl)phenyl]sulfonyl}octahydrocyclopenta[c]pyrrol-4-yl)-L-leucinamide] — 2-fold higher, 2700 nM
- CCCN(C(=O)[C@H](CC(C)(C)C)NC)[C@H]1CC[C@@H]2CN(S(=O)(=O)c3ccc(C(F)(F)F)cc3)C[C@@H]21 [Example 435, N^2,4-dimethyl-N^1-propyl-N^1-((3aR,4S,6aS)-2-{[4-(trifluoromethyl)phenyl]sulfonyl}octahydrocyclopenta[c]pyrrol-4-yl)-L-leucinamide] — 1.7-fold higher, 2320 nM
- CN[C@@H](CC(C)(C)C)C(=O)N(CC1CC1)[C@H]1CC[C@@H]2CN(S(=O)(=O)c3ccc(C(F)(F)F)cc3)C[C@@H]21 [Example 436, N^1-(cyclopropylmethyl)-N^2,4-dimethyl-N^1-((3aR,4S,6aS)-2-{[4-(trifluoromethyl)phenyl]sulfonyl}octahydrocyclopenta[c]pyrrol-4-yl)-L-leucinamide] — within 1.5-fold, 1770 nM
- CN[C@@H](CC(C)(C)C)C(=O)N(C)[C@H]1CC[C@@H]2CN(S(=O)(=O)c3ccc(C(F)(F)F)cc3)C[C@@H]21 [Example 437, N^1,N^2,4-trimethyl-N^1-((3aR,4S,6aS)-2-{[4-(trifluoromethyl)phenyl]sulfonyl}octahydrocyclopenta[c]pyrrol-4-yl)-L-leucinamide] — 1.8-fold higher, 2430 nM
- CC(C)(C)C[C@H](N)C(=O)N[C@H]1CC[C@@H]2CN(c3ccc(C(F)(F)F)cn3)C[C@@H]21 [Example 440, 4-methyl-N^1-{(3aR,4S,6aS)-2-[5-(trifluoromethyl)pyridin-2-yl]octahydrocyclopenta[c]pyrrol-4-yl}-L-leucinamide] — 2.4-fold higher, 3190 nM
